Columns and labels:
Assay in all cases: Test Example 1: foliar treatment, growth inhibition rate on 14th day
Assay type in all cases: in vivo
Details in all cases: active ingredient amount 31 g/ha, 14th day after application
[1] = tested on: wheat (Triticum aestivum L.)
Excerpt: (§1) Upland field soil was put into a 1/300,000 hectare pot, and seeds of various plants were sown. When the respective plants reached predetermined leaf stage ((1) barnyardgrass (Echinochloa crus-[…].): 0.5 to 2.9 leaf stage, (2) crabgrass (Digitaria sanquinalis L.): 0.5 to 3.0 leaf stage, (3) green foxtail (Setaria viridis L.): 0.5 to 3.2 leaf stage, (4) wild oat (Avena fatua L.): 0.4 to 1.2 leaf stage, (5) italian ryegrass (Lolium multiflorum Lam.): 0.4 to 2.0 leaf stage, (6) redroot pigweed (Amaranthus retroflexus L.): cotyledon stage to 2.2 leaf stage, (7) rice (Oryza sativa L.): 0.2 to 2.7 leaf stage, (8) corn (Zea mays L.): 1.7 to 3.6 leaf stage, (9) wheat (Triticum aestivum L.): 1.3 to 2.3 leaf stage, (10) soybean (Glycine max Merr.); primary leaf stage), wettable powders or emulsifiable concentrates of the compounds of the present invention prepared in accordance with a conventional preparation method, were weighed so as to achieve the prescribed active ingredient amounts, and diluted with water in an amount corresponding to 1,000 liters per 1 hectare (containing 0.1 vol % of an agricultural spreader (surfactant WK manufactured by MARUWA BIOCHEMICAL Co., Ltd.)), and the spray solutions thus prepared were applied for foliar treatment by a small sprayer. On the 14th day after the application, the state of growth of the respective plants was visually observed, and the herbicidal effect was evaluated by a growth inhibition rate (%) of 0 (equivalent to the non-treated area) to 100 (complete kill).

rice (Oryza sativa L.) = tested on: rice (Oryza sativa L.)
Excerpt: as §1

[2] = tested on: wild oat (Avena fatua L.)
Excerpt: as §1

[3] = tested on: redroot pigweed (Amaranthus retroflexus L.)
Excerpt: as §1

[4] = tested on: soybean (Glycine max Merr.)
Excerpt: as §1

[5] = tested on: barnyardgrass (Echinochloa crus-qalli L.)
Excerpt: as §1

[6] = tested on: italian ryegrass (Lolium multiflorum Lam.)
Excerpt: as §1

[7] = tested on: crabgrass (Digitaria sanquinalis L.)
Excerpt: as §1

corn (Zea mays L.) = tested on: corn (Zea mays L.)
Excerpt: as §1

[8] = tested on: green foxtail (Setaria viridis L.)
Excerpt: as §1

[9] = visual, 0 = non-treated, 100 = complete kill

Cc1ccc(Oc2nc3cc(F)ccc3o2)cc1-c1c(O)cnn(C)c1=O [Compound 2-184]
Growth inhibition rate (%) Wheat [1]: 10%
Growth inhibition rate (%) Rice (rice (Oryza sativa L.)): 60%
Growth inhibition rate (%) Wild oat [2]: 30%
Growth inhibition rate (%) Redroot pigweed [3]: 0%
Growth inhibition rate (%) Soybean [4]: 30%
Growth inhibition rate (%) Barnyardgrass [5]: 95%
Growth inhibition rate (%) Italian ryegrass [6]: 35%
Growth inhibition rate (%) Crabgrass [7]: 95%
Growth inhibition rate (%) Corn (corn (Zea mays L.)): 40%
Growth inhibition rate (%) Green foxtail [8]: 99%

Cc1ccc(Oc2ncc(C(F)(F)F)cc2Cl)cc1-c1c(OC(=O)c2nn(C)cc2C)c(C)nn(C)c1=O [1-136]
Growth inhibition rate (%) Wheat [1]: 90%
Growth inhibition rate (%) Rice (rice (Oryza sativa L.)): 25%
Growth inhibition rate (%) Wild oat [2]: 98%
Growth inhibition rate (%) Redroot pigweed [3]: 0%
Growth inhibition rate (%) Soybean [4]: 0%
Growth inhibition rate (%) Barnyardgrass [5]: 100%
Growth inhibition rate (%) Italian ryegrass [6]: 98%
Growth inhibition rate (%) Crabgrass [7]: 98%
Growth inhibition rate (%) Corn (corn (Zea mays L.)): 99%
Growth inhibition rate (%) Green foxtail [8]: 100%

CC(=O)Oc1c(C)nn(C)c(=O)c1-c1cc(Oc2ncc(C#N)cc2Cl)ccc1C [Compound 2-60]
Growth inhibition rate (%) Wheat [1]: 0%
Growth inhibition rate (%) Rice (rice (Oryza sativa L.)): 50%
Growth inhibition rate (%) Wild oat [2]: 50%
Growth inhibition rate (%) Redroot pigweed [3]: 0%
Growth inhibition rate (%) Soybean [4]: 0%
Growth inhibition rate (%) Barnyardgrass [5]: 88%
Growth inhibition rate (%) Italian ryegrass [6]: 40%
Growth inhibition rate (%) Crabgrass [7]: 85%
Growth inhibition rate (%) Corn (corn (Zea mays L.)): 50%
Growth inhibition rate (%) Green foxtail [8]: 75%

COC(=O)CCC(=O)Oc1c(C)nn(C)c(=O)c1-c1cc(Oc2cnc3cc(Cl)ccc3n2)ccc1C [Compound 3-46]
Growth inhibition rate (%) Wheat [1, 9]: 98%
Growth inhibition rate (%) Rice (rice (Oryza sativa L.); [9]): 98%
Growth inhibition rate (%) Wild oat [2, 9]: 100%
Growth inhibition rate (%) Redroot pigweed [3, 9]: 20%
Growth inhibition rate (%) Soybean [4, 9]: 35%
Growth inhibition rate (%) Barnyardgrass [5, 9]: 100%
Growth inhibition rate (%) Italian ryegrass [6, 9]: 100%
Growth inhibition rate (%) Crabgrass [7, 9]: 99%
Growth inhibition rate (%) Corn (corn (Zea mays L.); [9]): 50%
Growth inhibition rate (%) Green foxtail [8, 9]: 100%

CCS(=O)(=O)Oc1c(C)nn(C)c(=O)c1-c1cc(Oc2cnc3cc(Cl)ccc3n2)ccc1C [Compound 3-68]
Growth inhibition rate (%) Wheat [1, 9]: 30%
Growth inhibition rate (%) Rice (rice (Oryza sativa L.); [9]): 0%
Growth inhibition rate (%) Wild oat [2, 9]: 90%
Growth inhibition rate (%) Redroot pigweed [3, 9]: 0%
Growth inhibition rate (%) Soybean [4, 9]: 0%
Growth inhibition rate (%) Barnyardgrass [5, 9]: 100%
Growth inhibition rate (%) Italian ryegrass [6, 9]: 83%
Growth inhibition rate (%) Crabgrass [7, 9]: 95%
Growth inhibition rate (%) Corn (corn (Zea mays L.); [9]): 20%
Growth inhibition rate (%) Green foxtail [8, 9]: 100%

Cc1ccc(Oc2cnc3cc(Cl)ccc3n2)cc1-c1c(OC(=O)N(C)C)c(C)nn(C)c1=O [Compound 3-65]
Growth inhibition rate (%) Wheat [1, 9]: 98%
Growth inhibition rate (%) Rice (rice (Oryza sativa L.); [9]): 0%
Growth inhibition rate (%) Wild oat [2, 9]: 75%
Growth inhibition rate (%) Redroot pigweed [3, 9]: 0%
Growth inhibition rate (%) Soybean [4, 9]: 10%
Growth inhibition rate (%) Barnyardgrass [5, 9]: 100%
Growth inhibition rate (%) Italian ryegrass [6, 9]: 85%
Growth inhibition rate (%) Crabgrass [7, 9]: 83%
Growth inhibition rate (%) Corn (corn (Zea mays L.); [9]): 40%
Growth inhibition rate (%) Green foxtail [8, 9]: 99%

Cc1ccc(Oc2ncc(C#N)cc2Cl)cc1-c1c(O)c(C)nn(C)c1=O [Compound 2-2]
Growth inhibition rate (%) Wheat [1]: 0%
Growth inhibition rate (%) Rice (rice (Oryza sativa L.)): 0%
Growth inhibition rate (%) Wild oat [2]: 10%
Growth inhibition rate (%) Redroot pigweed [3]: 20%
Growth inhibition rate (%) Soybean [4]: 0%
Growth inhibition rate (%) Barnyardgrass [5]: 70%
Growth inhibition rate (%) Italian ryegrass [6]: 10%
Growth inhibition rate (%) Crabgrass [7]: 70%
Growth inhibition rate (%) Corn (corn (Zea mays L.)): 10%
Growth inhibition rate (%) Green foxtail [8]: 75%

Cc1ccc(Oc2cnc3cc(Cl)ccc3n2)cc1-c1c(OC(=O)c2cn(C)nc2C)c(C)nn(C)c1=O [Compound 3-43]
Growth inhibition rate (%) Wheat [1]: 95%
Growth inhibition rate (%) Rice (rice (Oryza sativa L.)): 80%
Growth inhibition rate (%) Wild oat [2]: 98%
Growth inhibition rate (%) Redroot pigweed [3]: 0%
Growth inhibition rate (%) Soybean [4]: 10%
Growth inhibition rate (%) Barnyardgrass [5]: 100%
Growth inhibition rate (%) Italian ryegrass [6]: 98%
Growth inhibition rate (%) Crabgrass [7]: 98%
Growth inhibition rate (%) Corn (corn (Zea mays L.)): 40%
Growth inhibition rate (%) Green foxtail [8]: 100%

Cc1ccc(Oc2ncc(Cl)cc2C(F)(F)F)cc1-c1c(O)c(C)nn(C)c1=O [Compound 2-92]
Growth inhibition rate (%) Wheat [1]: 0%
Growth inhibition rate (%) Rice (rice (Oryza sativa L.)): 0%
Growth inhibition rate (%) Wild oat [2]: 50%
Growth inhibition rate (%) Redroot pigweed [3]: 20%
Growth inhibition rate (%) Soybean [4]: 0%
Growth inhibition rate (%) Barnyardgrass [5]: 80%
Growth inhibition rate (%) Italian ryegrass [6]: 78%
Growth inhibition rate (%) Crabgrass [7]: 30%
Growth inhibition rate (%) Corn (corn (Zea mays L.)): 80%
Growth inhibition rate (%) Green foxtail [8]: 10%

CCOC(=O)OC(C)Oc1c(C)nn(C)c(=O)c1-c1cc(Oc2ncc(C(F)(F)F)cc2Cl)ccc1C (stereo not shown) [1-131]
Growth inhibition rate (%) Wheat [1]: 60%
Growth inhibition rate (%) Rice (rice (Oryza sativa L.)): 30%
Growth inhibition rate (%) Wild oat [2]: 93%
Growth inhibition rate (%) Redroot pigweed [3]: 0%
Growth inhibition rate (%) Soybean [4]: 0%
Growth inhibition rate (%) Barnyardgrass [5]: 100%
Growth inhibition rate (%) Italian ryegrass [6]: 83%
Growth inhibition rate (%) Crabgrass [7]: 100%
Growth inhibition rate (%) Corn (corn (Zea mays L.)): 80%
Growth inhibition rate (%) Green foxtail [8]: 93%

Cc1ccc(Oc2nc3ccccc3o2)cc1-c1c(O)c(C)nn(C)c1=O [Compound 2-104]
Growth inhibition rate (%) Wheat [1]: 20%
Growth inhibition rate (%) Rice (rice (Oryza sativa L.)): 10%
Growth inhibition rate (%) Wild oat [2]: 35%
Growth inhibition rate (%) Redroot pigweed [3]: 10%
Growth inhibition rate (%) Soybean [4]: 10%
Growth inhibition rate (%) Barnyardgrass [5]: 85%
Growth inhibition rate (%) Italian ryegrass [6]: 30%
Growth inhibition rate (%) Crabgrass [7]: 60%
Growth inhibition rate (%) Corn (corn (Zea mays L.)): 10%
Growth inhibition rate (%) Green foxtail [8]: 70%

CC(=O)Oc1c(C)nn(C)c(=O)c1-c1cc(Oc2nccc(C(F)(F)F)c2Cl)ccc1C [Compound 2-131]
Growth inhibition rate (%) Wheat [1]: 45%
Growth inhibition rate (%) Rice (rice (Oryza sativa L.)): 10%
Growth inhibition rate (%) Wild oat [2]: 50%
Growth inhibition rate (%) Redroot pigweed [3]: 10%
Growth inhibition rate (%) Soybean [4]: 10%
Growth inhibition rate (%) Barnyardgrass [5]: 85%
Growth inhibition rate (%) Italian ryegrass [6]: 78%
Growth inhibition rate (%) Crabgrass [7]: 65%
Growth inhibition rate (%) Corn (corn (Zea mays L.)): 40%
Growth inhibition rate (%) Green foxtail [8]: 98%

Cc1ccc(Oc2ncc(C(F)(F)F)cc2Cl)c(C)c1-c1c(O)c(C)nn(C)c1=O [1-13]
Growth inhibition rate (%) Wheat [1]: 20%
Growth inhibition rate (%) Rice (rice (Oryza sativa L.)): 40%
Growth inhibition rate (%) Wild oat [2]: 75%
Growth inhibition rate (%) Redroot pigweed [3]: 0%
Growth inhibition rate (%) Soybean [4]: 0%
Growth inhibition rate (%) Barnyardgrass [5]: 100%
Growth inhibition rate (%) Italian ryegrass [6]: 70%
Growth inhibition rate (%) Crabgrass [7]: 95%
Growth inhibition rate (%) Corn (corn (Zea mays L.)): 88%
Growth inhibition rate (%) Green foxtail [8]: 100%

From US10870638B2, “Pyridazinone compound or its salt, and herbicide containing it” (ISHIHARA SANGYO KAISHA, LTD., priority 2016, dated 2020)
